Data on five molecules can be found in ChEMBL document CHEMBL1201862, “PubChem BioAssay data set” (2004).

The source made the active and inactive calls.

Experiment [1] deals with Mitogen-activated protein kinase kinase kinase kinase 4 (Homo sapiens, UniProt O95819). Format: functional.
For experiment [2], the target named is Dual specificity protein kinase CLK2 (Homo sapiens, UniProt P49760). Format: functional.
Experiment [3] concerns the target T1, Serine/threonine-protein kinase D3 (Homo sapiens, UniProt O94806).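 Also: determined within a kinase panel screen, with PRKCN as the panel member.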
T1 sequence (O94806 whole entry): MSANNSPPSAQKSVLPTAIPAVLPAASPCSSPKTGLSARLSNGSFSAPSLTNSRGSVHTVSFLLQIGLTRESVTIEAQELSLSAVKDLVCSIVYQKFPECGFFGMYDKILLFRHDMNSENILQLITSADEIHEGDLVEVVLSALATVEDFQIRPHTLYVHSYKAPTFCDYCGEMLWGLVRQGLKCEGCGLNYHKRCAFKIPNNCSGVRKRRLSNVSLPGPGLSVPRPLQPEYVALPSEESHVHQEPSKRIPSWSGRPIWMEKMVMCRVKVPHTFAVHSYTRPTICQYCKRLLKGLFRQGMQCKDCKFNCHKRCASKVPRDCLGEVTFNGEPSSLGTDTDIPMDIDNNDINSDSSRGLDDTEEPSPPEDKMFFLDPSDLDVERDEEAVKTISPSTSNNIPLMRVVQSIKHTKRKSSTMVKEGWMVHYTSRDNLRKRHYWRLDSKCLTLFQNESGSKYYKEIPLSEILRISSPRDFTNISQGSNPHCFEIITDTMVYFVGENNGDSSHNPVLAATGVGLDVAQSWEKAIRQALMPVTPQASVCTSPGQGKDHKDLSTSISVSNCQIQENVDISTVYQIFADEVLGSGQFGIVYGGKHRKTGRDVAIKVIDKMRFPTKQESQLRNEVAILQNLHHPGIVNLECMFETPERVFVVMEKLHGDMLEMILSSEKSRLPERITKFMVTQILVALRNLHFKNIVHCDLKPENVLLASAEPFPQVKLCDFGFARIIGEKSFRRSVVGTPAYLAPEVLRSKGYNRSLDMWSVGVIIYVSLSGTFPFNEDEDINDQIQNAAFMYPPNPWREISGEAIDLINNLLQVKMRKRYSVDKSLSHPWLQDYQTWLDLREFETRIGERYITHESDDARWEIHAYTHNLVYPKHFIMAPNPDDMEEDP
Format: functional.

Experiment [4] deals with Mitogen-activated protein kinase 8 (Homo sapiens, UniProt P45983). The format is functional.
The target of experiment [5] is Cyclin-dependent kinase 7 (Homo sapiens, UniProt P50613). The format is functional.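 Also: value comes from a kinome-wide kinase profiling panel in which CDK7 is one member.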
Sequence of Cyclin-dependent kinase 7 (P50613 whole entry): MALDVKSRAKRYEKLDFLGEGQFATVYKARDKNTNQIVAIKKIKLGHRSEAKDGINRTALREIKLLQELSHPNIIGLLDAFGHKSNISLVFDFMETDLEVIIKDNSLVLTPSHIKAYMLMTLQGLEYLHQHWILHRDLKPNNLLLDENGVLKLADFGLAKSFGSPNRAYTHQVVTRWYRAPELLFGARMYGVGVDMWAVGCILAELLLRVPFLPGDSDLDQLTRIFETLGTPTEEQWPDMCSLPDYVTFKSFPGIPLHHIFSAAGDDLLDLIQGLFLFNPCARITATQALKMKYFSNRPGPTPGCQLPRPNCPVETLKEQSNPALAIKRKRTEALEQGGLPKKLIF
The target of experiment [6] is Tyrosine-protein kinase Fyn (Homo sapiens, UniProt P06241). The format is functional.
Experiment [7] has as its target cAMP-dependent protein kinase catalytic subunit PRKX (Homo sapiens, UniProt P51817). The format is functional.
The target in experiment [8] is Leukocyte tyrosine kinase receptor (Homo sapiens, UniProt P29376). As to the kind of experiment: Navigating the Kinome. Panel member name: LTK. The format is functional.
Sequence of Leukocyte tyrosine kinase receptor (P29376 whole entry): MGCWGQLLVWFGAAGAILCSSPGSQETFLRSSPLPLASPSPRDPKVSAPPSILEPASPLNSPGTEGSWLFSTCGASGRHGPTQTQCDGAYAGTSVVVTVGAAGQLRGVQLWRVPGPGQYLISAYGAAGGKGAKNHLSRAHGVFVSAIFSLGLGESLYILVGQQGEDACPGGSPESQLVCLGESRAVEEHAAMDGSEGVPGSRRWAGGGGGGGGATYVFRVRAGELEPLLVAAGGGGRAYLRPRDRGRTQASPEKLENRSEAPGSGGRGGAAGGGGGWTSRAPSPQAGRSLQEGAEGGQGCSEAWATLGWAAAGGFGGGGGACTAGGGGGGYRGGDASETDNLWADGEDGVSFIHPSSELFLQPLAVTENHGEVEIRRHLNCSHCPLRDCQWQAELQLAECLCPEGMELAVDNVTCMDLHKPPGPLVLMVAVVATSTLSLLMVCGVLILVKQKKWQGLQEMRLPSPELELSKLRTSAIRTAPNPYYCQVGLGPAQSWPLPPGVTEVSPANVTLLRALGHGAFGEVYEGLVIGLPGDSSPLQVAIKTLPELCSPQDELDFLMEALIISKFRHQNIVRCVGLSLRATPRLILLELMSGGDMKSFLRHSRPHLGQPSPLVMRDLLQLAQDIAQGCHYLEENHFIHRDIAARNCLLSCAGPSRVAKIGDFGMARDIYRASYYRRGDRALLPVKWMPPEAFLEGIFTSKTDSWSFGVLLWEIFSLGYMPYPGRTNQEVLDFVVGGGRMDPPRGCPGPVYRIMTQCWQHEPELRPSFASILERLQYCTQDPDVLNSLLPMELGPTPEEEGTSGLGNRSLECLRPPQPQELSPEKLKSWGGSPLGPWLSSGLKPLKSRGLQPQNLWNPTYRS
A further experiment has as its target T2, Aurora kinase A (Homo sapiens, UniProt O14965).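 Also: value from the Navigating the Kinome kinase panel profiling, panel entry STK6.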
T2 sequence (O14965 whole entry): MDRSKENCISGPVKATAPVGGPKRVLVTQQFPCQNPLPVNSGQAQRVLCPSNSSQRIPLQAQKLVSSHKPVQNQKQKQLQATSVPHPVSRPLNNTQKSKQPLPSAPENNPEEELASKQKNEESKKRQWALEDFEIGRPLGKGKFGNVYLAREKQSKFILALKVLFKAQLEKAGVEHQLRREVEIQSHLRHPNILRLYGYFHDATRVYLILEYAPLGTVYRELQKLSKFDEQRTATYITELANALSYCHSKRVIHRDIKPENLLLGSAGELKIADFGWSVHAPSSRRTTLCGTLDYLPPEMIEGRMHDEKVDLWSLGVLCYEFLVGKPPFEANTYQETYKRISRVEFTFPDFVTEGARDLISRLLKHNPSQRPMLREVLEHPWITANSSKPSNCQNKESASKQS
The format is functional.

The target of experiment [9] is Cyclin-dependent kinase 19 (Homo sapiens, UniProt Q9BWU1). Description: Navigating the Kinome. Panel member name: CDC2L6. Format: functional.
In experiment [10] the target is Tyrosine-protein kinase JAK2 (Homo sapiens, UniProt O60674). Format: functional.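 Also: JAK2 tested as one member of a kinase panel.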
The target in experiment [11] is Rho-associated protein kinase 1 (Homo sapiens, UniProt Q13464). Format: functional.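 Also: measured within a broad kinome-wide panel profiling many kinases.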
In experiment [12] the target is Platelet-derived growth factor receptor alpha (Homo sapiens, UniProt P16234). Description: Navigating the Kinome. Panel member name: PDGFRA. Format: functional.
Sequence of Platelet-derived growth factor receptor alpha (P16234 whole entry): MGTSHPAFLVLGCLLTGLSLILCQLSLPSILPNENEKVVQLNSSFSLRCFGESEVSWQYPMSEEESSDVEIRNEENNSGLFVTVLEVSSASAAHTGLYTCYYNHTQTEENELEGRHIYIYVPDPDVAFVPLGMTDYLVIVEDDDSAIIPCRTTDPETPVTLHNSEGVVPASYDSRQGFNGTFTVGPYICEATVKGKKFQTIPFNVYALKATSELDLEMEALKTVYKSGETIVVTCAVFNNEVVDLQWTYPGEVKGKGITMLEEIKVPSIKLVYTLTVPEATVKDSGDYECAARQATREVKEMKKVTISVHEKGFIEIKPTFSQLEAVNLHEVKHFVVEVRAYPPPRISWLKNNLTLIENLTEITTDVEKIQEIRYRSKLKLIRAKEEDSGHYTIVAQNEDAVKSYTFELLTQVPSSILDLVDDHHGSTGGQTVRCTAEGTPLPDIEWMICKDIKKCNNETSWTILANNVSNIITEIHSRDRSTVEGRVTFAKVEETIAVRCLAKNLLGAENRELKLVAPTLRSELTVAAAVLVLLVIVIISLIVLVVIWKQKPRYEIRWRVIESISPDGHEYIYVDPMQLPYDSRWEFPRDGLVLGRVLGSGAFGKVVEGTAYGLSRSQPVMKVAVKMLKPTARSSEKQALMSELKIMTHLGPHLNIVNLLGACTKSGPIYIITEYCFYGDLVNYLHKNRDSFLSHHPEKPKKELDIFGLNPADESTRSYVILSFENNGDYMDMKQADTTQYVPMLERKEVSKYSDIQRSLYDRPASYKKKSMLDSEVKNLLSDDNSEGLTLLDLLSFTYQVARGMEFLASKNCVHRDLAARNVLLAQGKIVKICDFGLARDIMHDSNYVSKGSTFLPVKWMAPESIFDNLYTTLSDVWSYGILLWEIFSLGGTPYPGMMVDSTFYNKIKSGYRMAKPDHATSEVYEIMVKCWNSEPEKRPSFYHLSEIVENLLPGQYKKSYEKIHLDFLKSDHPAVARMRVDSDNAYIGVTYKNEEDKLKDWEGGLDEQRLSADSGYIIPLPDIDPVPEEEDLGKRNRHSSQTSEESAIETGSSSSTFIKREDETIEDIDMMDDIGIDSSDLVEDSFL
A further experiment concerns the target Activin receptor type-1 (Homo sapiens, UniProt Q04771). As to the kind of experiment: Navigating the Kinome. Panel member name: ACVR1. Format: functional.
Experiment [13] has as its target T3, SUMO-activating enzyme (Homo sapiens, UniProt Q9UBT2). Description: SUMOylation inhibitor hit validation, confirmation, SUMOylation inhibitor project, biochemical, AlphaScreen (AID 2018). The format is functional. (Bead proximity is the source of the signal in Alpha formats.)
In experiment [14] the target is T3, SUMO-activating enzyme. Description: inhibitors of in vitro SUMOylation cascade, primary screen, biochemical, HTRF, uHTS (AID 2006). The format is protein-complex assay. In general terms: TR-FRET usually uses a lanthanide donor and a delayed reading to cut background.

T3 sequence (Q9UBE0 whole entry): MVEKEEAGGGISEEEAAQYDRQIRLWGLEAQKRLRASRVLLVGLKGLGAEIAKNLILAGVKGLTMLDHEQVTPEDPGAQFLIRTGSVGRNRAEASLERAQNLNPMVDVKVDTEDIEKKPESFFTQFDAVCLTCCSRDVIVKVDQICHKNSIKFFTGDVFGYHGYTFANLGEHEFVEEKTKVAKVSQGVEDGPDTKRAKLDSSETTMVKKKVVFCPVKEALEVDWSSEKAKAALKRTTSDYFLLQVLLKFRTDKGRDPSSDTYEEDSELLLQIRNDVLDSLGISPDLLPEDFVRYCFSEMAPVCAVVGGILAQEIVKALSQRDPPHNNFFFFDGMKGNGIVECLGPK
T3 sequence (Q9UBT2 whole entry): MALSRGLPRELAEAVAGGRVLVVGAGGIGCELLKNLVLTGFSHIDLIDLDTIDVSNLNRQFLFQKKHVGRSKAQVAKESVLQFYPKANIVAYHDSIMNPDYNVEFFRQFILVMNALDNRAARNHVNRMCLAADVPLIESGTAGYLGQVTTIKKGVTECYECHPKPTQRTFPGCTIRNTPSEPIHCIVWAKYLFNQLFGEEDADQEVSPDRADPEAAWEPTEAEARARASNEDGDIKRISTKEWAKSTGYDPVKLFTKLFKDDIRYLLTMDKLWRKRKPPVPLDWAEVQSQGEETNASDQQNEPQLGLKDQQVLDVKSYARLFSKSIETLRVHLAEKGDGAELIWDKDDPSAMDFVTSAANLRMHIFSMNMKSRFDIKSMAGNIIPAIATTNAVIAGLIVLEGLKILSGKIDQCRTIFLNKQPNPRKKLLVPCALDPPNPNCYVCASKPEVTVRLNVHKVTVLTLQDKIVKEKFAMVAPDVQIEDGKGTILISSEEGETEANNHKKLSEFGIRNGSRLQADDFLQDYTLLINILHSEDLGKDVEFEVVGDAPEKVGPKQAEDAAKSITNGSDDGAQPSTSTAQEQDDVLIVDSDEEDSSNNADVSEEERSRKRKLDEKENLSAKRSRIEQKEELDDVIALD
Sequence of Mitogen-activated protein kinase kinase kinase kinase 4 (O95819 whole entry): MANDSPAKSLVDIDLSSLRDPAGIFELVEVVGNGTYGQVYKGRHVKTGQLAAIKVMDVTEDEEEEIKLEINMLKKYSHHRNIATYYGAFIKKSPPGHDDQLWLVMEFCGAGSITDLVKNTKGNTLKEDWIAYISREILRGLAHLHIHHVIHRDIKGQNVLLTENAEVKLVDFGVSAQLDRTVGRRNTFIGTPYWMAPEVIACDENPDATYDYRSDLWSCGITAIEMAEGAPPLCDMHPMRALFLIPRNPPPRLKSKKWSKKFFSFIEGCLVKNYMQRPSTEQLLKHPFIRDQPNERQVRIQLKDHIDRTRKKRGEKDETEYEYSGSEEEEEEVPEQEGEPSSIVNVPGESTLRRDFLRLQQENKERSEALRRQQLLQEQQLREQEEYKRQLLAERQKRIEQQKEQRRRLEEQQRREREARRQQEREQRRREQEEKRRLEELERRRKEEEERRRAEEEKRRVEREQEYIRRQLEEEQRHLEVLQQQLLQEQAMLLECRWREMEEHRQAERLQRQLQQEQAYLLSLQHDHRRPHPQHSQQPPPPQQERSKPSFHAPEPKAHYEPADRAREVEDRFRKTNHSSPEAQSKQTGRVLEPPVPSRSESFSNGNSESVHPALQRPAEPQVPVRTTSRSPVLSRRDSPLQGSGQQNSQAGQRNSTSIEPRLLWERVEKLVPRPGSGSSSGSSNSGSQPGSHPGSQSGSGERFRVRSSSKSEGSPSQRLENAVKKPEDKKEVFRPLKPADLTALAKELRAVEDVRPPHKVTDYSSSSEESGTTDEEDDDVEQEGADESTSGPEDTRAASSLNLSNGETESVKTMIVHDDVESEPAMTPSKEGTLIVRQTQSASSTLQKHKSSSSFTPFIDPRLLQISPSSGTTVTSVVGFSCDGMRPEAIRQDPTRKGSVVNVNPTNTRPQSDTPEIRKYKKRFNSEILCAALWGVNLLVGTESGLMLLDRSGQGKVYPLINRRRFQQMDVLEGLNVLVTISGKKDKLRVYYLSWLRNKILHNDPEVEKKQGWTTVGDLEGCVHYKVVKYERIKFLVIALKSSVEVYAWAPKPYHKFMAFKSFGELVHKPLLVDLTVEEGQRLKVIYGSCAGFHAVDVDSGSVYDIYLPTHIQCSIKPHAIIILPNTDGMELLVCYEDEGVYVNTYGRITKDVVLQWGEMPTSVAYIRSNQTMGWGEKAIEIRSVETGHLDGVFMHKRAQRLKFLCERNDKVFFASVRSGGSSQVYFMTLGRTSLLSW
Sequence of Dual specificity protein kinase CLK2 (P49760 whole entry): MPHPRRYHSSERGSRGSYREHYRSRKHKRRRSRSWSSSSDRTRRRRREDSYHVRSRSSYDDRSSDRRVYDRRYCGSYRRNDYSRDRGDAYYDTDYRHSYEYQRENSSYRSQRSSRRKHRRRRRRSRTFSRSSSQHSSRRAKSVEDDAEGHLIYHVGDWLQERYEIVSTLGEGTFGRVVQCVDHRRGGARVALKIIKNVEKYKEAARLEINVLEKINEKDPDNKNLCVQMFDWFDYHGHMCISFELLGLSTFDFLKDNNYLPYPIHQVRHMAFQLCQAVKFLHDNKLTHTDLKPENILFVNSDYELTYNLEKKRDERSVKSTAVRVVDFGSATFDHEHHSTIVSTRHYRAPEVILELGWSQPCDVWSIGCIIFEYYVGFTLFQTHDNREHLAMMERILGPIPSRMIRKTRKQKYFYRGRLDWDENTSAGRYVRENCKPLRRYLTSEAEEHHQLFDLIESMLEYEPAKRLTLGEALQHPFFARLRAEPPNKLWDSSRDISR

Regarding `O=C1Nc2cc(-c3ccc(O)cc3)ccc2C1=Cc1ccc[nH]1`, the Ki (commonly a dissociation constant, usually derived from enzyme kinetics or from competition with a known ligand) was 20 nM (active) in experiment [1]; > 3980 nM (inactive) in experiment [2]; > 3980 nM (inactive) in experiment [3]; > 5010 nM (inactive) in experiment [4]; > 3980 nM (inactive) in experiment [5]; > 6310 nM (inactive) in experiment [6]. The Ki in experiment [7] was 2000 nM (active); in [8], 3.98 nM (active); on Aurora kinase A it was > 1580 nM (inactive); in [9], > 100000 nM (inactive); in [10], 5.01 nM (active); in [11], > 3980 nM (inactive). Moreover, the inhibitory constant (Ki) was 501 nM (active) in experiment [12] and 3160 nM (active) at Activin receptor type-1.
As for `Oc1nc(Nc2ccc(F)cc2)cc2ccccc12`, the concentration for half-maximal inhibition (IC50) (as a rule, the concentration that inhibits the measured activity by half) on SUMO-activating enzyme [13] was 1120 nM (active); at SUMO-activating enzyme [14], 3380 nM (active).
`NC(COc1cncc(-c2ccc3c(c2)C(=Cc2ccc[nH]2)C(=O)N3)c1)Cc1ccccc1` (stereo not drawn): the inhibition constant (Ki) in experiment [1] is 5.01 nM (active); in experiment [2] it was 0.794 nM (active); in [3], 15.8 nM (active); in [4] it was 1260 nM (active); in [5], 10 nM (active); in experiment [6], 398 nM (active). The Ki was 39.8 nM (active) in [7]; 126 nM (active) in experiment [8]; 251 nM (active) at Aurora kinase A; 63.1 nM (active) in experiment [10]; 3.98 nM (active) in experiment [11]; 126 nM (active) in [12]. In addition, the Ki on Activin receptor type-1 was 794 nM (active).
For the molecule `O=C1Cc2cc(-c3ccccc3)cnc2N1`, the inhibition constant (Ki) in experiment [1] was 79400 nM (active); in experiment [3], 63100 nM (active); in experiment [5] it was 39800 nM (active); in experiment [8], 15800 nM (active); at Aurora kinase A, 20000 nM (active); in experiment [9], > 100000 nM (inactive). In addition, the Ki in experiment [12] is 39800 nM (active).
`CN(C)c1cc(N/N=C\c2ccccc2)nc(N(C)C)n1`: the IC50 on SUMO-activating enzyme [13] was 1600 nM (active); at SUMO-activating enzyme [14], 15500 nM (active).
